Where two headings read alike, the source gives them in different places.
How the values were obtained:
[1] = molecular target: T1, GST-RIPK2 fusion protein (human RIPK2, amino acids 1-310) (Homo sapiens, UniProt O43353); assay: RIPK2 binding competition assay (TR-FRET, Tracer 199 displacement)
T1 construct: made in house; host or cells: baculovirus infected Sf9 cells
Method in brief: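 GST-RIPK2 (human aa 1-310, Sf9-expressed; final 1 nM) with Tracer 199 (final 10 nM) and Tb-anti-GST (final 0.5 nM) in Tris pH 7.5 buffer, 45 min at 22 °C. TR-FRET 665/620 nm ratio after 337 nm excitation; normalized to no-inhibitor (0%) and no-protein (−100%), giving IC50.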

[2] = molecular target: T2, binding of His-XIAP(BIR2)-avi fusion protein to GST-RIPK2 fusion protein (RIPK2/XIAP) (Homo sapiens, UniProt O43353); assay: RIPK2-XIAP binding competition PPI assay (TR-FRET); settings: for Emax: read-out: PPI Amax bin
T2 construct: made in house; host or cells: baculovirus infected Sf9 cells
Method in brief: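 Compounds (in DMSO, 100-fold stock) incubated 120 min at 23 °C with 1 nM GST-RIPK2 (aa 1-310) and 25 nM His-XIAP(BIR2 aa 152-231)-avi, plus anti-His-XL665 and anti-GST-Tb, in pH 7.5 Tris buffer. Read-out: 665/520 nm emission ratio. Normalized to no-inhibitor (0%) and 50 nM GSK583 (−100%); Amax binned A–D.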

[3] = system: NF-κB pathway (SEAP) in THP1-Dual cells; assay: THP-1 Dual cell SEAP assay (L18-MDP stimulated); format: cell-based; settings: Homo sapiens, THP1-Dual, read-out: NF-κB THP1 IC50 bin
Method in brief: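 THP1-Dual cells (~25,000/well) were preincubated 30 min with serially diluted compounds, then stimulated with 10 ng/mL L18-MDP (final) for 20-24 h at 37 °C. Supernatant SEAP was read with QUANTI-Blue at OD 620-655 nm after 2 h. IC50 came from non-linear fits of % inhibition versus DMSO/L18-MDP controls after media-blank subtraction.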

[4] = 10 nM Tracer 199, 1 nM GST-RIPK2, read-out: RIPK2 IC50
[5] = RIPK2/XIAP binding competition PPI assay, Amax
[6] = RIPK2/XIAP binding competition PPI assay, read-out: PPI IC50 bin
[7] = RIPK2 IC50 (nM), 10 nM Tracer 199, 1 nM GST-RIPK2
[8] = PPI IC50 bin, RIPK2/XIAP binding competition PPI assay

T1 sequence (O43353 1-310): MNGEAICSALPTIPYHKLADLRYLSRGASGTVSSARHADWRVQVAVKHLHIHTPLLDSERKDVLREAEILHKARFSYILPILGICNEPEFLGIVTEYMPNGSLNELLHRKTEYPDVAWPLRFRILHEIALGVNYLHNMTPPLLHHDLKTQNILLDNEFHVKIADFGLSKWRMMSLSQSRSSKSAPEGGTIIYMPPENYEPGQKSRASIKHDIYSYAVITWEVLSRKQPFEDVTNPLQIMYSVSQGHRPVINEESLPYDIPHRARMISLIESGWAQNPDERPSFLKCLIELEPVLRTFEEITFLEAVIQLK
T2 sequence (O43353 1-310 limits assumed): as the sequence (O43353 1-310) above

| Compound | IC50 [1, 4] | Emax [2, 5] | IC50 [2, 6] | IC50 [3] | IC50 [1, 7] | IC50 [2, 8] | Emax [2] |
| --- | --- | --- | --- | --- | --- | --- | --- |
| COc1cc2ncc(-c3cnc4c(c3)OCCN4C)n2cc1S(=O)(=O)C(C)(C)C [Example 123, 7-(6-(tert-butylsulfonyl)-7-methoxyimidazo[1,2-a]pyridin-3-yl)-4-methyl-3,4-dihydro-2H-pyrido[3,2-b][1,4]oxazine] | > 20 nM | 30 to 55% | > 20 nM | > 1000 nM |  |  |  |
| CC(C)(C)S(=O)(=O)c1cn2c(-c3cnc4[nH]ccc4n3)cnc2cc1OCCO [Example 277, 2-((6-(tert-butylsulfonyl)-3-(5H-pyrrolo[2,3-b]pyrazin-2-yl)imidazo[1,2-a]pyridin-7-yl)oxy)ethan-1-ol] | 2.5 to 20 nM | < 30% | > 20 nM | 250 to 1000 nM |  |  |  |
| Cn1ccc(-c2cc3ncc(-c4cc(F)c(N)nc4F)n3cc2S(=O)(=O)C(C)(C)C)n1 [Example 27, 5-(6-(tert-butylsulfonyl)-7-(1-methyl-1H-pyrazol-3-yl)imidazo[1,2-a]pyridin-3-yl)-3,6-difluoropyridin-2-amine] | > 20 nM | > 80% | > 20 nM | > 1000 nM |  |  |  |
| COc1cc2ncc(-c3cc(F)c(OC)c(NS(=O)(=O)c4cnn(C)c4)c3)n2cc1C1(F)CCN(C)CC1 [Example 234, N-(3-fluoro-5-(6-(4-fluoro-1-methylpiperidin-4-yl)-7-methoxyimidazo[1,2-a]pyridin-3-yl)-2-methoxyphenyl)-1-methyl-1H-pyrazole-4-sulfonamide] | < 1 nM | > 80% | < 1 nM | < 50 nM |  |  |  |
| COc1cc2ncc(-c3cc(F)c(N)nc3F)n2cc1C1(O)CCN(C)CC1 [Example 74, 4-(3-(6-amino-2,5-difluoropyridin-3-yl)-7-methoxyimidazo[1,2-a]pyridin-6-yl)-1-methylpiperidin-4-ol] | > 20 nM | > 80% | > 20 nM | > 1000 nM |  |  |  |
| CC(C)(C)S(=O)(=O)c1cn2c(-c3cnc4nccn4c3)cnc2cc1OCCO [Example 235, 2-((6-(tert-butylsulfonyl)-3-(imidazo[1,2-a]pyrimidin-6-yl)imidazo[1,2-a]pyridin-7-yl)oxy)ethan-1-ol] | > 20 nM | < 30% | > 20 nM | > 1000 nM |  |  |  |
| CC(C)(C)S(=O)(=O)c1cn2c(-c3cnc4[nH]c(Cl)cc4c3)cnc2cc1OCCO [Example 233, 2-((6-(tert-butylsulfonyl)-3-(2-chloro-1H-pyrrolo[2,3-b]pyridin-5-yl)imidazo[1,2-a]pyridin-7-yl)oxy)ethan-1-ol] | 2.5 to 20 nM | < 30% | > 20 nM | > 1000 nM |  |  |  |
| CC(C)(C)S(=O)(=O)c1cn2c(-c3cnc4[nH]ncc4c3)cnc2cc1OCCO [Example 222, 2-((6-(tert-butylsulfonyl)-3-(1H-pyrazolo[3,4-b]pyridin-5-yl)imidazo[1,2-a]pyridin-7-yl)oxy)ethan-1-ol] | 2.5 to 20 nM | < 30% | > 20 nM | > 1000 nM |  |  |  |
| C=CS(=O)(=O)Nc1cc(-c2cnc3cc(OC)c(S(=O)(=O)C(C)(C)C)cn23)cc(OC)c1OC [Example 144, N-(5-(6-(tert-butylsulfonyl)-7-methoxyimidazo[1,2-a]pyridin-3-yl)-2,3-dimethoxyphenyl)ethenesulfonamide] | 1 to 2.5 nM | > 80% | < 1 nM | < 50 nM |  |  |  |
| CC(C)(C)S(=O)(=O)c1cn2c(-c3ccc4nccn4c3)cnc2cc1OCCO [Example 208, 2-((6-(tert-butylsulfonyl)-[3,6′-biimidazo[1,2-a]pyridin] -7-yl)oxy)ethan-1-ol] | 2.5 to 20 nM | < 30% | > 20 nM | > 1000 nM |  |  |  |
| COc1cc2ncc(-c3cc(F)c(OC)c(NS(=O)(=O)c4cn(C)nc4C)c3)n2cc1S(=O)(=O)C(C)(C)C [Example 279, N-(5-(6-(tert-butylsulfonyl)-7-methoxyimidazo[1,2-a]pyridin-3-yl)-3-fluoro-2-methoxyphenyl)-1,3-dimethyl-1H-pyrazole-4-sulfonamide] | < 1 nM | > 80% | < 1 nM | < 50 nM |  |  |  |
| CC(C)(C)S(=O)(=O)c1cn2c(-c3cc4cc[nH]c4cc3F)cnc2cc1OCCO [Example 217, 2-((6-(tert-butylsulfonyl)-3-(6-fluoro-1H-indol-5-yl)imidazo[1,2-a]pyridin-7-yl)oxy)ethan-1-ol] | < 1 nM | 55 to 80% | < 1 nM | 50 to 250 nM |  |  |  |
| CC(C)(C)S(=O)(=O)c1cc2c(-c3cc(Cl)c(N)nc3F)cnn2cc1OCCOP(=O)(O)O [Example 187, 2-((3-(6-amino-5-chloro-2-fluoropyridin-3-yl)-5-(tert-butylsulfonyl)pyrazolo[1,5-a]pyridin-6-yl)oxy)ethyl dihydrogen phosphate] | 2.5 to 20 nM | > 80% | 2.5 to 20 nM | 250 to 1000 nM |  |  |  |
| C[C@H](CO)Oc1cc2ncc(-c3cc(F)c(N)nc3F)n2cc1S(=O)(=O)C(C)(C)C [Example 172, (R)-2-((3-(6-amino-2,5-difluoropyridin-3-yl)-6-(tert-butylsulfonyl)imidazo[1,2-a]pyridin-7-yl)oxy)propan-1-ol] |  | > 80% |  | 250 to 1000 nM | 2.5 to 20 nM | 2.5 to 20 nM |  |
| COc1cn2ncc(-c3cc(F)c(N)nc3F)c2cc1C1(O)CCN(C)CC1 [Example 73, 4-(3-(6-amino-2,5-difluoropyridin-3-yl)-6-methoxypyrazolo[1,5-a]pyridin-5-yl)-1-methylpiperidin-4-ol] | 2.5 to 20 nM | > 80% | 2.5 to 20 nM | 250 to 1000 nM |  |  |  |
| CCC(CO)COc1cc2ncc(-c3cc(F)c(N)nc3F)n2cc1S(=O)(=O)C(C)(C)C (centres unmarked) [Example 48, 2-(((3-(6-amino-2,5-difluoropyridin-3-yl)-6-(tert-butylsulfonyl)imidazo[1,2-a]pyridin-7-yl)oxy)methyl)butan-1-ol] | 1 to 2.5 nM | > 80% | 2.5 to 20 nM | 50 to 250 nM |  |  |  |
| CC(C)(C)S(=O)(=O)c1cn2c(-c3cc(F)c(N)nc3F)cnc2cc1CO [Example 39, (3-(6-amino-2,5-difluoropyridin-3-yl)-6-(tert-butylsulfonyl)imidazo[1,2-a]pyridin-7-yl)methanol] | > 20 nM | > 80% | > 20 nM | > 1000 nM |  |  |  |
| CC(C)(C)S(=O)(=O)c1cn2c(-c3cc(F)c(N)nc3F)cnc2cc1OCCN1CCOCC1 [Example 18, 5-(6-(tert-butylsulfonyl)-7-(2-morpholinoethoxy)imidazo[1,2-a]pyridin-3-yl)-3,6-difluoropyridin-2-amine] | 2.5 to 20 nM | > 80% | 2.5 to 20 nM | 250 to 1000 nM |  |  |  |
| COc1cc2ncc(-c3cccc(NS(=O)(=O)C4CCNCC4)c3)n2cc1S(=O)(=O)C(C)(C)C [Example 158, N-(3-(6-(tert-butylsulfonyl)-7-methoxyimidazo[1,2-a]pyridin-3-yl)phenyl)piperidine-4-sulfonamide] | > 20 nM | > 80% | > 20 nM | > 1000 nM |  |  |  |
| COc1cc2ncc(-c3cnn(-c4ccccc4)c3F)n2cc1S(=O)(=O)C(C)(C)C [Example 88, 6-(tert-butylsulfonyl)-3-(5-fluoro-1-phenyl-1H-pyrazol-4-yl)-7-methoxyimidazo[1,2-a]pyridine] | > 20 nM | < 30% | > 20 nM | > 1000 nM |  |  |  |
| C[C@@H](O)COc1cc2ncc(-c3ccc(N)nc3F)n2cc1S(=O)(=O)C(C)(C)C [Example 250, (R)-1-((3-(6-amino-2-fluoropyridin-3-yl)-6-(tert-butylsulfonyl)imidazo [1,2-a]pyridin-7-yl)oxy)propan-2-ol] | 2.5 to 20 nM | > 80% | > 20 nM | > 1000 nM |  |  |  |
| CC(C)(CO)COc1cc2ncc(-c3cc(F)c(N)nc3F)n2cc1S(=O)(=O)C(C)(C)C [Example 47, 3-((3-(6-amino-2,5-difluoropyridin-3-yl)-6-(tert-butylsulfonyl)imidazo[1,2-a]pyridin-7-yl)oxy)-2,2-dimethylpropan-1-ol] | 1 to 2.5 nM | > 80% | 1 to 2.5 nM | 50 to 250 nM |  |  |  |
| COc1cc2ncc(-c3cc(F)c(N)nc3F)n2cc1S(=O)(=O)C(C)(C)CN1CCN(C)CC1 [Example 166, 3,6-difluoro-5-(7-methoxy-6-((2-methyl-1-(4-methylpiperazin-1-yl)propan-2-yl)sulfonyl)imidazo[1,2-a]pyridin-3-yl)pyridin-2-amine] |  |  |  | > 1000 nM | 2.5 to 20 nM | 2.5 to 20 nM | > 80% |

Reference: patent US20260137706A1, “METHODS OF TREATING INFLAMMATORY DISEASES” (INTERLINE THERAPEUTICS, INC., priority 2023, published 2026)
